The values below come from patent US4851420A, “2,6-diamino-3-halobenzylpyridines and processes for their manufacture as well as their use in pharmaceuticals” (ASTA Pharma Aktiengesellschaft, priority 1986, dated 1989).

Data set [1] can be described thus: acetic acid Writhing Test (analgesia), mouse. It counts as in vivo. The settings on record: p.a. (so in the source). An excerpt: Acetic acid Writhing Test Koster et al., Fed. Proc., Volume 18, 412 (1959).
In general terms: In writhing tests, fewer writhes than in controls are read as antinociception.

A short description of data set [2]: Randall-Selitto Test (analgesia), rat. It counts as in vivo. The settings on record: for ED50: po. An excerpt:
Randall-Selitto Test G. Engelhardt, Arzneim. Forsch. 34, 992 et seq. (1984); Maruyama et al., Arzneim. Forsch. 28, 11 (1978).

A short description of data set [3]: Toxicity, LD50 rat. The note with it: in vivo, po. The source says: (§1) Miller, Tainter, Proc. Soc. Exper. Biol. Med. 57, 261 (1944).
The nature of data set [4]: Toxicity, LD50 mouse. The note with it: in vivo, po.
Source text: as §1

The nature of data set [5]: general absence of side-effects (gastrointestinal disorders, gastric ulcers). The note with it: compared to known substances, e.g. non-steroidal anti-inflammatory agents with analgesic components. It counts as in vivo.

Molecules are shown by their SMILES.

What is called ED50 is the dose at which the effect has come halfway, by size or by number of responders. Lower therefore signals greater potency. As usually defined, the LD50 is the dose expected to kill half of the subjects tested. Lower therefore signals a more toxic substance.

For `CCOC(=O)Nc1ccc(NCc2ccc(F)cc2)nc1N` [Flupirtin, reference compound], the ED50 stood at 44.5 mg/kg in data set [1] and 38.8 mg/kg in data set [2]. The LD50 in data set [3] was found to be 1660 mg/kg; in data set [4] it was 633 mg/kg.
Consider `Nc1ccc(Cc2c(F)cccc2Cl)c(N)n1` [D 17748, 2,6-diamino-3-(2-fluoro-6-chloro)benzylpyridine], for which the “acetic acid Writhing Test Mouse, % effect at stated dose” value in data set [1] (at 0.5 mg/kg (printed 0.5/34%)) is given as 34%. In data set [2] (p.o., at 0.5 mg/kg (printed 0.5/57%)), the “Randall-Selitto Test Rat, % effect at stated dose” value worked out at 57%. Further, the LD50 in data set [4] stood at 285 mg/kg.
For `Nc1ccc(Cc2ccccc2F)c(N)n1` [D 17746, 2,6-diamino-3-(2-fluoro)benzylpyridine], the LD50 in data set [4] came to 276 mg/kg.
With `Nc1ccc(Cc2ccc(F)cc2)c(N)n1` [D 17033, 2,6-diamino-3-(4-fluoro)benzylpyridine], the ED50 is 1.4 mg/kg in data set [1] and 0.2 mg/kg in data set [2]. Moreover, the LD50 worked out at 1100 mg/kg in data set [3] and 266 mg/kg in data set [4]. For the same compound, in data set [5], the “side-effects such as gastrointestinal disorders and gastric ulcers” value is listed as “general absence of side-effects”.
